Values after ≈ are worked out from the molar mass of the structure shown. Residues, ends and D or L forms follow the SMILES beside them.
What was measured:
[1] = tested on: S. epidermidis; test: Serum stability by MIC in human serum; format: cell-based, Staphylococcus epidermidis; details: 10^6 CFU/mL, 24 h, 37°C
Protocol: The stability of BiF2_5K7K in the presence of human serum was assessed by evaluating the MIC values, as previously described. Human serum was subjected to heat inactivation at 56°C for 30 min. Bacterial suspensions were then adjusted to a concentration of 10^6 CFU/mL in MHB supplemented with 25% and 50% human serum. These suspensions were mixed with two-fold serially diluted concentrations of BiF2_5K7K (ranging from 0.98 to 250 µg/mL) and incubated at 37°C for 24 h. MICs were subsequently determined as described above. The study protocol was ethically approved by the Thammasat University Ethics Committee (COA No. 066/2562). All volunteers provided written informed consent.

[2] = tested on: Escherichia coli ATCC 25922; test: Broth microdilution MIC / MBC; format: cell-based; details: 24 h, 37°C
Protocol: (§1) The minimal inhibitory concentrations (MICs) of peptide derivatives versus planktonic bacteria were assessed using a modification of the broth microdilution assay previously described in the National Committee for Clinical Laboratory Standards (NCCLS). In brief, bacteria at mid-logarithmic growth were collected by centrifugation at 2,500 × g for 5 min. Subsequently, the pellet was resuspended and adjusted in Mueller-Hinton Broth (MHB; BD Bacto™, USA) to an OD620 of 0.05. Fifty µL of bacterial suspensions was transferred to 96-well microplates. Later, 50 µL of peptide derivatives at 0.98–250 µg/mL in 10 mM PBS, was added to wells and incubated for 24 h at 37°C with continuous shaking at 220 rpm. […] The experiments were done in three technical replicates and repeated independently.
(§2) To determine minimal bactericidal concentrations (MBCs) of the peptides, 50 µL of supernatant from non-turbid wells was plated on TSA, and the number of colony-forming units (CFUs) was observed after 24 h of incubation at 37°C. MBC was defined as the minimum concentration of peptide at which no bacterial colony was observed on the plate.

[3] = tested on: Listeria monocytogenes 10403s; test: Broth microdilution MIC / MBC; format: cell-based; details: 24 h, 37°C
Protocol: as §1, §2

[4] = tested on: Salmonella Typhimurium ATCC 13311; test: Broth microdilution MIC / MBC; format: cell-based; details: 24 h, 37°C
Protocol: as §1, §2

[5] = tested on: Staphylococcus aureus ATCC 25923; test: Broth microdilution MIC / MBC; format: cell-based; details: 24 h, 37°C
Protocol: as §1, §2

[6] = tested on: Acinetobacter baumanii MT strain; test: Broth microdilution MIC / MBC; format: cell-based; details: 24 h, 37°C
Protocol: as §1, §2

[7] = tested on: Bacillus cereus ATCC 11778; test: Broth microdilution MIC / MBC; format: cell-based; details: 24 h, 37°C
Protocol: as §1, §2

[8] = tested on: Pseudomonas aeruginosa ATCC 27853; test: Broth microdilution MIC / MBC; format: cell-based; details: 24 h, 37°C
Protocol: as §1, §2

[9] = tested on: Staphylococcus epidermidis ATCC 35984; test: Broth microdilution MIC / MBC; format: cell-based; details: plating of non-turbid wells on TSA, 24 h, 37°C
Protocol: as §1, §2

[10] = tested on: human red blood cells (hRBCs); test: Hemolysis activity (hemoglobin release); format: cell-based; details: 1 h, 37°C
Protocol: The effect of peptides on human red blood cells (hRBCs) was assessed by observing the release of hemoglobin upon treated with peptide. Briefly, the hRBCs were obtained from healthy volunteers and subsequently diluted in 10 mM PBS to a concentration of 2% hRBCs. An equal volume of 2% hRBCs and peptide at concentration of 0.98–250 µg/mL in 10 mM PBS mixtures were incubated for 1 h at 37°C. Following incubation, the suspension was centrifuged, then supernatants were collected and transferred to 96-well microplates for measurement of absorbance at OD of 405 nm (OD405). This study was performed in accordance with the Thammasat University Ethics Committee (COA No. 066/2562). Written informed consent was obtained from all volunteers.

[11] = tested on: S. epidermidis biofilm cells; test: Biofilm cell viability, MTT assay; format: cell-based, Staphylococcus epidermidis; details: 24 h
Protocol: The biofilm cell viability after treated with hybrid peptide BiF2_5K7K was examined by 3-(4,5-Dimethylthiazol-2-yl)-2,5-Diphenyltetrazolium bromide or MTT colorimetric assays. Bacterial suspensions (10^6 CFU/mL in TSB) and peptide at concentration ranging from 0.98 to 250 µg/mL in 10 mM PBS were incubated in 96-well microtiter plates at 37°C for 24 h. After incubation, supernatant was discarded, followed by the addition of 0.4 mg/mL MTT (Sigma-Aldrich, USA) in 10 mM PBS to each well and incubated for 3 h at 37°C. Subsequently, supernatant was removed and dimethyl sulfoxide (DMSO; Fisher BioReagents™, UK) was added to dissolve the formed formazan crystals in wells. At a wavelength of 570 nm, the optical densities of the solutions were then determined by microplate reader.

[12] = tested on: S. epidermidis biofilm matrix; test: Confocal laser scanning microscopy of biofilm formation (AAA model); format: cell-based, Staphylococcus epidermidis; details: at MBIC50 (7.81 µg/mL), 24 h; p-value < 0.001
Protocol: An Amsterdam active attachment (AAA) model was used to assess the effectiveness of BiF2_5K7K to inhibit biofilm formation as previously described. In a 24-well microplate, various concentrations of BiF2_5K7K were incubated overnight with 10^7 CFU/mL of S. epidermidis. The plate was then covered with a sanitary stainless-steel lid containing double-glass coverslips. Following 24 h of incubation at 37°C, the biofilms were washed, and then […] green Alexa-ConA (Sigma-Aldrich, USA) was applied for 30 min to stain the biofilms. After staining, biofilms were fixed for 3 h with 2.5% glutaraldehyde. Biofilm images were acquired using a confocal laser scanning microscope (CLSM; Carl-Zeiss/LSM800, Zeiss, Germany). The fluorescence intensity of each test was analysed using ZEN 2.1 (blue edition) software.

[13] = broth microdilution, MHB, 0.98-250 µg/mL, visible inspection
[14] = plating of non-turbid wells on TSA

## CC[C@H](C)[C@H](NC(=O)[C@H](CCCCN)NC(=O)[C@H](CCCCN)NC(=O)[C@@H](NC(=O)[C@H](CC(C)C)NC(=O)[C@@H](N)Cc1ccccc1)C(C)C)C(=O)N[C@@H](CCCCN)C(=O)N[C@@H](CCCCN)C(=O)N[C@H](C(=O)N[C@@H](CC(C)C)C(=O)N[C@@H](CCCNC(=N)N)C(=O)N[C@@H](CCCNC(=N)N)C(N)=O)[C@@H](C)CC [BiF2_5K7K] (H-FLVKKIKKILRR-NH2; N-terminus assumed)
[1]; MHB with 25% heat-inactivated human serum
  MIC in the presence of human serum: 15.63 µg/mL
[1]; MHB with 50% heat-inactivated human serum
  MIC in the presence of human serum: 15.63 µg/mL
[2]; [13]
  MIC: 250 µg/mL (≈ 162 µM)
[2]; [14]
  MBC: 250 µg/mL (≈ 162 µM)
[3]; [13]
  MIC: 31.25 µg/mL (≈ 20.3 µM)
[3]; [14]
  MBC: 62.5 µg/mL (≈ 40.6 µM)
[4]; [13]
  MIC: 31.25 µg/mL (≈ 20.3 µM)
[4]; [14]
  MBC: 62.5 µg/mL (≈ 40.6 µM)
[5]; [13]
  MIC: > 250 µg/mL
[5]; [14]
  MBC: > 250 µg/mL
[6]; [13]
  MIC: 31.2 µg/mL (≈ 20.3 µM)
[6]; [14]
  MBC: 31.2 µg/mL (≈ 20.3 µM)
[7]; [13]
  MIC: 250 µg/mL (≈ 162 µM)
[7]; [14]
  MBC: 250 µg/mL (≈ 162 µM)
[8]; [13]
  MIC: 62.5 µg/mL (≈ 40.6 µM)
[8]; [14]
  MBC: 125 µg/mL (≈ 81.1 µM)
[9]
  MBC: 31.25 µg/mL (≈ 20.3 µM)
[10]; at 250 µg/mL (maximum concentration tested)
  hemolytic activity: less than 10%
[10]; peptide concentration causing 10% hemolysis of hRBCs, 2% hRBCs in 10 mM PBS, OD405
  MHC, minimum hemolytic concentration: >250 µg/mL
[11]; at MIC (15.63 µg/mL)
  viability of biofilm cells: remained viable
[11]; at higher concentrations (>15.63 µg/mL)
  viability of biofilm cells: no growth of biofilm cells
[12]
  fluorescence intensity of Alexa Fluor 488 stained biofilm vs untreated control: significantly lower
